What all share (assay): NCI tumour cell line growth inhibition, 48 h
In assay [1] the test system is 786-0.
Assay [2] relates to DU-145.
In assay [3] the test system is HCC 2998.
Assay [4] has as its system HL-60.
Assay [5] has as its system HOP-62.
In assay [6] the test system is HT-29.
Assay [7] has as its system MDA-MB-231.
The test system of assay [8] is MDA-MB-435.
Assay [9] relates to OVCAR-4.
Assay [10] relates to SF-268.
Assay [11] deals with SK-OV-3.
The subject of assay [12] is SN12C.
For assay [13], the system named is SNB-75.
Assay [14] has as its system SR.
The test system of assay [15] is T47D.
Assay [16] concerns TK-10.
Assay [17] has as its system U-251.
In assay [18] the test system is UO-31.
For assay [19], the system named is Malme-3M.
In assay [20] the test system is SF-295.

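Step 1: Grow cells in 96-well plates. Step 2: Expose to compound for 48 hours at 5 concentrations. Step 3: Interpolate endpoints linearly; if unreached, use highest concentration. GI50 = concentration required for 50% inhibition of growth.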 Activity calls are given as the source filed them. Cut-off read from the data, not from the text of the source: active = GI50 up to about 1.1 µM and inactive = higher.

On to `O=C1OC(c2ccccc2)=N/C1=C\c1ccc(F)cc1`, for which the GI50 in assay [1] was > 100 µM (inactive); in [2], > 100 µM (inactive); in assay [3] it was > 100 µM (inactive); in [4], > 100 µM (inactive); in assay [5], 42.4 µM (inactive); in [6], > 100 µM (inactive). The GI50 is > 100 µM (inactive) in assay [7]; > 100 µM (inactive) in assay [8]; 97.3 µM (inactive) in assay [9]; 66.8 µM (inactive) in assay [10]; > 100 µM (inactive) in assay [11]; > 100 µM (inactive) in assay [12]. Further, the GI50 in assay [13] is > 100 µM (inactive); in assay [14] it was > 100 µM (inactive); in assay [15], > 100 µM (inactive); in assay [16], > 100 µM (inactive); in assay [17], 89.7 µM (inactive); in assay [18], > 100 µM (inactive).

Take `CC(=O)Oc1cc(Cl)c(C)c2c1[C@H]1CC[C@]3(C)[C@@H](OC(C)=O)CC[C@H]3[C@@H]1CC2`: the GI50 in assay [1] is > 100 µM (inactive); in assay [2], > 100 µM (inactive); in assay [3] it was > 100 µM (inactive); in assay [4], 53.6 µM (inactive); in assay [5], > 100 µM (inactive); in assay [6] it was 61.4 µM (inactive). Also, the GI50 in assay [7], in assay [8], in assay [19], in assay [10], in assay [20] and in assay [12] was > 100 µM (inactive) in each case. Besides, the GI50 in [13] is > 100 µM (inactive); in [15] it was 83.2 µM (inactive); in assay [16], > 100 µM (inactive); in [17] it was 94.2 µM (inactive); in assay [18], > 100 µM (inactive).

For `Nc1nc(N)c2c(n1)NC(c1ccccc1)CC(/C=C/c1ccc(Cl)cc1)=N2` (stereo not given), the GI50 in assay [1] is 3.11 µM (inactive); in assay [2] it was 9.23 µM (inactive); in assay [4], 10.2 µM (inactive); in assay [5] it was 14.8 µM (inactive); in assay [6], 3.95 µM (inactive); in assay [7], 3.23 µM (inactive). The GI50 in assay [8] was 3.59 µM (inactive); in assay [19] it was 13.5 µM (inactive); in assay [9], 6.41 µM (inactive); in [10] it was 15.3 µM (inactive); in assay [20], 14.1 µM (inactive); in assay [11], 15.7 µM (inactive). Also, the GI50 in assay [12] was 8.89 µM (inactive); in [13] it was 18.5 µM (inactive); in assay [15], 5.83 µM (inactive); in assay [16] it was 2.56 µM (inactive); in [17] it was 5.87 µM (inactive); in [18], 9.12 µM (inactive).

Take `N=c1oc2cc(O)ccc2cc1C(=O)Nc1ccccn1`: the GI50 in assay [1] was 16.4 µM (inactive); in assay [2] it was 25.4 µM (inactive); in [3] it was 34.3 µM (inactive); in assay [4] it was 30.5 µM (inactive); in [5] it was > 100 µM (inactive); in assay [6], 29.7 µM (inactive). Moreover, the GI50 in [7] was 54.3 µM (inactive); in [8], 44.5 µM (inactive); in assay [19], 47.2 µM (inactive); in [9], 33 µM (inactive); in assay [10], 65.2 µM (inactive); in assay [20], > 100 µM (inactive). Moreover, the GI50 in assay [11] was 37.2 µM (inactive); in assay [12], 62.2 µM (inactive); in [13] it was 36.5 µM (inactive); in assay [15], 32.7 µM (inactive); in assay [16], 41.9 µM (inactive); in assay [17], 44.5 µM (inactive). For the same compound, in assay [18], the GI50 is 0.292 µM (active).

As to `O=[N+]([O-])/C=C1\COCc2cc3c(cc21)OCO3`, the GI50 is 19.3 µM (inactive) in assay [1]; 19.1 µM (inactive) in [2]; 18 µM (inactive) in assay [3]; 25.2 µM (inactive) in assay [4]; 38.9 µM (inactive) in assay [5]; 25.1 µM (inactive) in assay [6]. Also, the GI50 in assay [7] was 14.4 µM (inactive); in [8], 14.5 µM (inactive); in assay [10], 27.2 µM (inactive); in [20], 44 µM (inactive); in [11], 42.7 µM (inactive); in assay [12] it was 22.5 µM (inactive). Besides, the GI50 was 16.5 µM (inactive) in [13]; 18.9 µM (inactive) in assay [14]; 15.9 µM (inactive) in assay [15]; 22.8 µM (inactive) in assay [16]; 18.6 µM (inactive) in [17]; 18.9 µM (inactive) in assay [18].

On to `O=C1CC(c2ccccc2Cl)Oc2ccccc21` (stereo not given), for which the GI50 in assay [1] was 29 µM (inactive); in [2] it was 45 µM (inactive); in assay [3], 71.1 µM (inactive); in assay [4], 32.4 µM (inactive); in assay [5], 25.9 µM (inactive); in assay [6], 10.8 µM (inactive). For the same compound, the GI50 in [7] is 26.9 µM (inactive); in assay [8], 18.5 µM (inactive); in [9], 51.9 µM (inactive); in [10] it was 37.2 µM (inactive); in assay [20], 40.6 µM (inactive); in assay [11], > 100 µM (inactive). Further, the GI50 in assay [13] is 22.7 µM (inactive); in [14], 23.2 µM (inactive); in assay [15] it was 43 µM (inactive); in [16], 98.6 µM (inactive); in assay [17], 27.7 µM (inactive); in [18], 57.5 µM (inactive).

Turning to `c1ccc2c[n+](CCCC[n+]3ccc4ccccc4c3)ccc2c1`, the GI50 in [1], in assay [2], in assay [3], in assay [4], in assay [5] and in [6] was > 100 µM (inactive) in each case. Besides, the GI50 in [7], in assay [8], in assay [9], in assay [10], in assay [20] and in assay [11] was > 100 µM (inactive) throughout. Moreover, the GI50 in assay [12], in [13], in assay [14], in assay [15], in assay [16] and in assay [17] was > 100 µM (inactive) throughout.

In the case of `O=C1CSC(c2c[nH]c3ccccc23)N1c1ccccc1[N+](=O)[O-]` (stereo not given), the GI50 in assay [1], in assay [2], in [3], in [4], in [5] and in [6] was > 100 µM (inactive) each time. Besides, the GI50 in assay [7], in assay [8], in assay [9], in [10], in assay [20] and in assay [11] was > 100 µM (inactive) each time. The GI50 in [12], in [14], in [15], in [16], in assay [17] and in [18] was > 100 µM (inactive) throughout.

Consider `COC(=O)c1ccccc1C1CN=NC12Cc1c(C)cc(C)cc1C2=O` (stereo not given), for which the GI50 in [1], in assay [2], in assay [3], in assay [4], in assay [5] and in [6] was > 100 µM (inactive) in each case. The GI50 in assay [7] was 45.4 µM (inactive); in assay [8], > 100 µM (inactive); in [19], > 100 µM (inactive); in [9], > 100 µM (inactive); in assay [10], > 100 µM (inactive); in assay [20], > 100 µM (inactive). Further, the GI50 was > 100 µM (inactive) in assay [11]; > 100 µM (inactive) in [12]; 58.2 µM (inactive) in assay [13]; > 100 µM (inactive) in assay [15]; > 100 µM (inactive) in [16]; > 100 µM (inactive) in assay [17]. For the same compound, the GI50 in assay [18] was > 100 µM (inactive).

With `COC1=CC(=O)c2c(c(-c3nc(C)cs3)cn2C)C1=O`, the GI50 in assay [1] is 18.1 µM (inactive); in assay [2] it was 3.76 µM (inactive); in [3], 4.28 µM (inactive); in assay [4] it was 1.46 µM (inactive); in [5], 3.05 µM (inactive); in assay [6], 4.98 µM (inactive). In addition, the GI50 in assay [7] was 15.7 µM (inactive); in assay [8] it was 0.409 µM (active); in assay [9] it was 18.5 µM (inactive); in [10], 6.44 µM (inactive); in assay [20], 2.88 µM (inactive); in assay [11] it was 41.2 µM (inactive). Also, the GI50 is 5.79 µM (inactive) in assay [12]; 1.75 µM (inactive) in assay [13]; 4.95 µM (inactive) in assay [14]; 20.1 µM (inactive) in assay [15]; 10.8 µM (inactive) in assay [16]; 4.67 µM (inactive) in assay [17]. The GI50 in assay [18] was 4.53 µM (inactive).

For the compound `N#CI1OC(C(F)(F)F)(C(F)(F)F)c2ccccc21`, the GI50 in [1] is 14.2 µM (inactive); in assay [2], 18.6 µM (inactive); in [3], 20 µM (inactive); in [4], 5.77 µM (inactive); in [5], 57.5 µM (inactive); in assay [6], 16.4 µM (inactive). Moreover, the GI50 was 24 µM (inactive) in assay [7]; 17.8 µM (inactive) in assay [8]; 15.1 µM (inactive) in [9]; 17.8 µM (inactive) in [10]; 45.9 µM (inactive) in assay [20]; > 100 µM (inactive) in assay [11]. The GI50 was 23.1 µM (inactive) in assay [12]; 13.9 µM (inactive) in assay [13]; 18.1 µM (inactive) in assay [15]; 19 µM (inactive) in [16]; 21.2 µM (inactive) in assay [17]; 14.6 µM (inactive) in [18].

Source of the values: ChEMBL document CHEMBL1201862, “PubChem BioAssay data set” (2004).
